Measured values as given in patent publication US20230243825A1, “ADAPTIVE NANOPARTICLE PLATFORMS FOR HIGH THROUGHPUT EXPANSION AND DETECTION OF ANTIGEN-SPECIFIC T CELLS” (The Johns Hopkins University, priority 2020, published 2023).

How the values were obtained:
B16-OVA tumor cells = assay: IFN-γ pre-incubation of tumor cells; assay type: cell-based; conditions: overnight pre-incubation
Experimental: Whether this same approach can be expanded to other tumor models was then examined by applying it to B16-OVA. Initial results were inconclusive, so an attempt to increase the amount of recoverable peptide was made by pre-incubating tumor cells overnight with IFN-γ to upregulate MHC I on their surface. […] The calculated yield was approximately […] of peptide per 1×10^4 tumor cells, still roughly 0.00002% (w/w) of the eluted 100 micrograms of peptide.

[1] = tested on: SIY and VDW-specific CD8+ T cells; assay: In vivo peptide vaccination with poly I:C, dimer staining; set-up: species or system mouse; conditions: Day 0 and Day 7, harvest Day 15
Source text: On Day 15, mouse spleens and lymph nodes were harvested for dimer and particle staining, following similar protocols described above.

IFNγ
MHC I expression on tumor cells (B16-OVA tumor cells): drastically increased

VDWENVSPEL
peptide-specific CD8+ T cells, dimer staining pre- vs post-vaccination [1]: significant increases

SIYRYYGL
peptide-specific CD8+ T cells, dimer staining pre- vs post-vaccination [1]: significant increases
